# Laboratory results taken from patent US7491849B2, “Oligoamine compounds and derivatives thereof for cancer therapy” (priority 2001, dated 2009).
# Tests used:
# DuPro = assay: MTT assay, tumor cell growth, DuPro; assay type: cell-based; conditions: 6 days incubation, read-out: ID50 (μM) values for Human Tumor Cell Lines, DuPro
# Method: (§1) Effect of Saturated Oligoamines on Human Prostate Tumor Cell Growth by the MTT assay. Saturated oligoamines inhibited prostate cancer cell growth in vitro. DU-145 cells were most sensitive and PC-3 cells were less sensitive to the effects of oligoamines. In general, ID50 values of less than 0.5 μM were obtained (Table 2). Even though the PC-3 cells were relatively more resistant to the oligoamines, at a 5 μM concentration the oligoamines reduced the cell number to less than 1% of the control on day 6 of incubation. Tissue cultures and the MTT assay were performed as follows.
# (§2) Tissue Culture. Cells were seeded into 75 cm^2 culture flasks with 15 ml of Eagle's minimal essential medium supplemented with 10% fetal calf serum and nonessential amino acids. The flasks were incubated in a humidified 95% air/5% CO2 atmosphere. The cells were grown for at least 24 h to ensure that they are in the log phase of growth and then they were treated with the oligoamines. Cells were harvested by treatment for 5 min with STV (saline A, 0.05% trypsin, 0.02% EDTA) at 37° C. The flasks were rapped on the lab bench, pipetted several times and aliquots of cell suspension were withdrawn and counted using a Coulter particle counter that has been standardized for counting each cell line using a hemacytometer.
# (§3) MTT Assay: Trypsinized cell suspensions were diluted to seed 80 μl suspensions containing 500 cells in each well of a 96 well Corning microtiter plate and incubated overnight at 37° C. in a humidified incubator in 5% CO2. 20 μl of appropriately diluted stock solution of each drug were added to the middle 8 columns of cell suspension in the microtiter plates. Each drug concentration was run in quadruplicate. Outer columns of the plates were used for buffer controls. Cells were incubated with the drug for 6 days at 37° C. in 5% CO2/H2O atmosphere. 25 μl of 5 mg/ml solution of 3-(4,5-dimethylthiazol-2-yl)-2,5-diphenyl tetrazolium bromide (MTT) were added to each well and incubated for 4 hours at 37° C. in 5% CO2/H2O incubator. Cells were lysed by incubating overnight with 100 μl lysis buffer (500 ml of the lysis buffer contains: 100 g lauryl sulfate (SDS), 250 ml of N,N-dimethylformamide, and 2 ml of glacial acetic acid, made up to volume with water; pH 4.8).
# (§4) The color was monitored at room temperature at 570 nm in a E-max Precision Microplate Reader (Molecular Devices Corporation, Sunnyvale, Calif.) and data was analyzed using cell survival software supplied by Molecular Devices Corporation.
# DU145 = assay: MTT assay, tumor cell growth, DU145; assay type: cell-based; conditions: 6 days incubation, read-out: ID50 (μM) values for Human Tumor Cell Lines, DU145
# Method: as §1, §2, §3, §4
# [1] = Solubility in water for injection; assay type: physicochemical; conditions: dosing solution, 6.25 mg/kg in 0.1 mL/10 g body weight
# Method: Response of implanted sc DU-145 prostate tumors to treatment with SL-11159 and SL-11226. This experiment evaluates the antitumor efficacy of SLIL Biomedical Corporation compounds (SL-11159, SL-11226) against subcutaneously-implanted DU-145 human prostate tumor xenografts in male NCr-nu (line 3A10F17T1) mice. All compounds were tested at a single dose level when administered intravenously (iv), at 6.25 mg/kg. Both SL-11159 and SL-11226 were prepared in water for injection (soluble); the injection volume was 0.1 mL/10 g body weight.
# DuPro Cells = assay: Cellular polyamine and oligoamine levels, DuPro cells (HPLC); assay type: cell-based
# Method: (§5) Cellular Uptake of Oligoamines. There was considerable uptake of oligoamines by the cancer cell lines; see Table 3A (DuPro cells) and Table 3B (PC-3 cells). […] While not wishing to be limited by any particular theory of operation, the cytotoxicity is likely related to their strong aggregation effect on DNA.
# (§6) Polyamine Analysis. An appropriate number of cells were taken from harvested samples and centrifuged at 1000 rpm at 4° C. for 5 min. The cells were washed twice with chilled Dulbecco's isotonic phosphate buffer (pH 7.4) by centrifugation at 1000 rpm at 4° C. and resuspended in the same buffer. After the final centrifugation, the supernatant was decanted, and […] of 8% sulfosalycilic acid was added to the cell pellet. The cells were sonicated, and the mixture was kept at 4° C. for at least 1 h. After centrifugation at 8000 g for 5 min, the supernatant was removed for analysis. An appropriate volume (50-100 μl) was fluorescence-labeled by derivatizing with dansyl chloride. Labeled polyamines were loaded onto a C-18 high-performance liquid chromatography column and separated by gradient elution with acetonitrile/water at 50° C. Peaks were detected and quantitated using Shimadzu HPLC fluorescence monitor coupled with a Spectra-Physics peak integrator. Because polyamine levels vary with environmental conditions, control cultures were sampled for each experiment.
# PC-3 Cells = assay: Cellular polyamine and oligoamine levels, PC-3 cells (HPLC); assay type: cell-based
# Method: as §5, §6
# Calf-thymus DNA = Calf-thymus DNA aggregation (absorbance at 320 nm); assay type: biochemical; conditions: 50 mM NaCl, 1 mM Na-cacodylate pH 7.0
# Method: Calf-thymus DNA aggregation by spermine and oligoamines.
# Test for DNA Aggregation: DNA aggregation was studied using a Perkin-Elmer Lambda 25 UV/visible spectrophotometer connected to a PTP 6 heating unit using a previously published procedure (see Basu, H S and Marton, L J, “The interaction of spermine and pentamines with DNA,” Biochemical Journal 244:243-246 (1987)). Aggregation was determined in 50 mM NaCl, 1 mM Na-cacodylate pH 7.0 buffer by observing the increase in DNA absorbance (approximately 0.5 A260 units) at 320 nm.
# [2] = Day 4 of Treatment, analog conc. 0.8 μM
# [3] = Day 4 of Treatment, analog conc. 1.6 μM
# [4] = PC-3, Day 4 of Treatment, analog conc. 1 μM
# [5] = PC-3, Day 4 of Treatment, analog conc. 5 μM
# [6] = PC-3, Day 6 of Treatment, analog conc. 1 μM
# [7] = Day 6 of Treatment, analog conc. 0.8 μM
SMILES,IC50 (DuPro) [µM],IC50 (DU145) [µM],solubility in water for injection [1],"Polyamine levels, Analog (cellular oligoamine level) (DuPro Cells; [2]) [nmoles/10^6 cells]","Polyamine levels, Put (DuPro Cells; [2]) [nmoles/10^6 cells]","Polyamine levels, Analog (cellular oligoamine level) (PC-3 Cells; [4]) [nmoles/10^6 cells]","Polyamine levels, Put (PC-3 Cells; [4]) [nmoles/10^6 cells]","Polyamine levels, Analog (cellular oligoamine level) (PC-3 Cells; [5]) [nmoles/10^6 cells]","Polyamine levels, Put (PC-3 Cells; [5]) [nmoles/10^6 cells]",Conc. (μM) at the start of DNA Aggregation (Calf-thymus DNA) [µM],also measured
CCNCCCCNCCCCNCCCCNCCCCNCCCCNCCCCNCCCCNCCCCNCCCCNCC.Cl.Cl.Cl.Cl.Cl.Cl.Cl.Cl.Cl.Cl [SL-11159],0.3,0.15,soluble,0.525,0.560,0.513,0.525,0.388,0.670,2.5,"Polyamine levels, Analog (cellular oligoamine level) (DuPro Cells; [3]): 0.513 nmoles/10^6 cells; Polyamine levels, Put (DuPro Cells; [3]): 0.137 nmoles/10^6 cells; Polyamine levels, Spd (PC-3 Cells; [4]): 0.531 nmoles/10^6 cells; Polyamine levels, Spm (PC-3 Cells; [4]): 0.300 nmoles/10^6 cells; Polyamine levels, Spm (PC-3 Cells; [5]): 0.240 nmoles/10^6 cells; Polyamine levels, Analog (cellular oligoamine level) (PC-3 Cells; [6]): 1.026 nmoles/10^6 cells; Polyamine levels, Put (PC-3 Cells; [6]): 0.640 nmoles/10^6 cells"
CCNCCCCNCCCCNCCCCNCCCCNCCCCNCCCCNCCCCNCCCCNCCCCNCCCCNCCCCNCC.Cl.Cl.Cl.Cl.Cl.Cl.Cl.Cl.Cl.Cl.Cl.Cl [SL-11226],0.11,0.08,soluble,0.032,0.593,0.021,0.573,0.026,0.985,2.2,"Polyamine levels, Spd (DuPro Cells; [2]): 0.017 nmoles/10^6 cells; Polyamine levels, Spm (DuPro Cells; [2]): 0.067 nmoles/10^6 cells; Polyamine levels, Analog (cellular oligoamine level) (DuPro Cells; [7]): 0.022 nmoles/10^6 cells; Polyamine levels, Put (DuPro Cells; [7]): 0.548 nmoles/10^6 cells; Polyamine levels, Spd (PC-3 Cells; [5]): 0.071 nmoles/10^6 cells"
